Eight compounds from publication PMC10891769, “Chirality and Rigidity in Triazole-Modified Peptidomimetics Interacting with Neuropilin-1” (Pharmaceuticals, 2024) can be followed below.

Values joined by “and” are separate entries in the source; they are usually repeats but may differ in a detail not shown here. Equal entries are not always repeated. No end group written: not given here.

The target in the experiment is T1, recombinant human NRP-1 (hNRP-1) (Homo sapiens, UniProt O14786).
T1 construct: purchased BioLegend, San Diego, CA, USA
T1 sequence (O14786 22-923): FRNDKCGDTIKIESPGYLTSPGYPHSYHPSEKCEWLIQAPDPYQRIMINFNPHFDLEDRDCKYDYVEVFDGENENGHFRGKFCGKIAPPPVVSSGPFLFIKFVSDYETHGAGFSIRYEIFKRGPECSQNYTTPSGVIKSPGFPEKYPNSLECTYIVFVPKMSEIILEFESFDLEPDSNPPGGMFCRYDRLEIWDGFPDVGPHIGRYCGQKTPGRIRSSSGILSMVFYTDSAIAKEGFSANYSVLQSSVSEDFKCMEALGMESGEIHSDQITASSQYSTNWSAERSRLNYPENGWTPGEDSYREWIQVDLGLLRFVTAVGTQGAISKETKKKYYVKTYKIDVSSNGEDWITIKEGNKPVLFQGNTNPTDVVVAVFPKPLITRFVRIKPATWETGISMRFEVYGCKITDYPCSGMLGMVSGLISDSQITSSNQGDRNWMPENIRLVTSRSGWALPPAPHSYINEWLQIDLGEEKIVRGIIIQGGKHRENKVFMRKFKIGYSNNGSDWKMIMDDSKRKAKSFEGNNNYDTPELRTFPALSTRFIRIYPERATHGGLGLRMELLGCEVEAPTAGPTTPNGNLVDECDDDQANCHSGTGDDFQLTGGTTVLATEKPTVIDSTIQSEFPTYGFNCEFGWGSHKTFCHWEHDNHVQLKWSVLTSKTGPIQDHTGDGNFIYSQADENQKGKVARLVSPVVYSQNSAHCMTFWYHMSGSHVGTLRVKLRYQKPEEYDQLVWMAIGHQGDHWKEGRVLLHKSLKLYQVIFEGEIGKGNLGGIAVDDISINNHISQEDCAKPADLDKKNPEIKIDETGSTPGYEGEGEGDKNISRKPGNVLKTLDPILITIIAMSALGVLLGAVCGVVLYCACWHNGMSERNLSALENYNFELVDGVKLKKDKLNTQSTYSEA
The experiment can be described thus: chemoluminescence affinity detection: displacement of biotinylated VEGF165A from coated NRP-1. The format is binding. The note with it: VEGF 165A displacement from NRP-1; compounds at 12.5-100 µM; ± standard (fitting) error.
Protocol: In this work, a dedicated chemoluminescence affinity detection method was used.
Briefly, the surfaces of flat-bottom polystyrene wells of 96-well plates were coated with human recombinant Neuropilin-1. The wells were then incubated with human biotinylated VEGF165A {h(bt)VEGF} and subsequently with different concentrations of studied compounds, which then competitively bound to the NRP-1 detaching VEGF. The wells were then treated with streptavidin–horseradish peroxidase conjugate and with chemoluminescent substrate. Thus, the obtained color signal was directly proportional to the amount of bound biotinylated VEGF and therefore to the strength of the interaction of studied compounds with NRP-1 competing with VEGF. IC50 was calculated as the concentration at which half of the bound VEGF was detached from NRP-1.
The flat-bottom wells of polystyrene microplates (Nunc Immuno™ MicroWell™ 96 well solid plates) were coated overnight at 4 °C with recombinant human NRP-1 (hNRP-1) (BioLegend, San Diego, CA, USA) at 2 µg/mL. Then, the wells were washed twice with 0.5% Tween20 phosphate-buffered saline (PBS) and subsequently incubated for 2 h at RT with 200 µL of 10.5% BSA in PBS in order to block unspecific binding. The plates were then rinsed with distilled water and were subsequently incubated for 2 h at RT with 50 µL (400 ng/mL) of h(bt)VEGF 165 A (Abcam, Cambridge, UK) in PBS with 4 µg/mL heparine as well as with 50 µL of the studied compounds in PBS in different concentrations (12.5 µM, 25 µM, 50 µM and 100 µM). The plates were rinsed again with distilled water and incubated for 45 min at RT in 100 µL of streptavidin–horseradish peroxidase conjugate in PBS. After one more water rinse, 100 μL chemiluminescent substrate was added. The luminescence was quantified immediately after addition of the substrate. The percentages of inhibition were calculated with the formula 100% − {(S − SN)/(P − NS)} × 100%. S is the intensity of the measured signal, NS is the intensity of the measured signal in the negative control and P is the intensity of the measured signal in the positive control. The positive control was incubated solely with VEGF 165A with no studied compound. Negative control was obtained from wells which were not coated with hNRP-1. All experiments were performed in triplicate. Determination of IC50 was carried out using the nonlinear regression function with Prism (Version 10.1.2, GraphPad software). The standard (fitting) error of the mean was calculated using Prism’s Sy.x function.
Take `CC(C)(NC(=O)[C@@H](N)CCCCNC(=O)[C@@H](N)CCCCNC(=N)N)c1cn(C(C)(C)c2cn([C@@H](CCCNC(=N)N)C(=O)O)nn2)nn1` [3L, H-Lys(Har)-Mba[Trl]Mba[Trl]Arg-OH]: the IC50 (in general, the midpoint of a concentration-inhibition curve) was 23 µM and 23.4 µM.

For the compound `CC(C)(NC(=O)[C@H](N)CCCCNC(=O)[C@@H](N)CCCCNC(=N)N)c1cn(C(C)(C)c2cn([C@@H](CCCNC(=N)N)C(=O)O)nn2)nn1` [3D, H-D-Lys(Har)-Mba[Trl]Mba[Trl]Arg-OH], the IC50 was 91 µM and 90.5 µM.

As to `CC(C)(c1cn([C@@H](CCCNC(=N)N)C(=O)O)nn1)n1cc(CNC(=O)[C@@H](N)CCCCNC(=O)[C@@H](N)CCCCNC(=N)N)nn1` [2L, H-Lys(Har)-Gly[Trl]Mba[Trl]Arg-OH], the IC50 is 87.5 ± 3.3 µM.

For the compound `N=C(N)NCCCC[C@H](N)C(=O)NCCCC[C@H](N)C(=O)NCc1cn(Cc2cn([C@@H](CCCNC(=N)N)C(=O)O)nn2)nn1` [1L, H-Lys(Har)-Gly[Trl]Gly[Trl]Arg-OH], the IC50 came to 68.5 ± 3.3 µM.

In the case of `CC(C)(c1cn([C@@H](CCCNC(=N)N)C(=O)O)nn1)n1cc(CNC(=O)[C@H](N)CCCCNC(=O)[C@@H](N)CCCCNC(=N)N)nn1` [2D, H-D-Lys(Har)-Gly[Trl]Mba[Trl]Arg-OH], the IC50 amounted to 69.4 ± 4 µM.

“ATWLPPR [A7R, ATWLPPR, reference compound]”: the IC50 is 31.2 ± 4.2 µM.

For `N=C(N)NCCCC[C@H](N)C(=O)NCCCC[C@@H](N)C(=O)NCc1cn(Cc2cn([C@@H](CCCNC(=N)N)C(=O)O)nn2)nn1` [1D, H-D-Lys(Har)-Gly[Trl]Gly[Trl]Arg-OH], the IC50 came to 63.6 ± 2.3 µM.

For the compound `CC(C)(NC(=O)[C@H](N)CCCCNC(=O)[C@@H](N)CCCCNC(=N)N)c1cn(Cc2cn([C@@H](CCCNC(=N)N)C(=O)O)nn2)nn1` [4D, H-D-Lys(Har)-Mba[Trl]Gly[Trl]Arg-OH], the IC50 is 36 µM and 35.6 µM.
